Measurements reported in patent US9274101B2 (BIOLOG, Inc., priority 2001, dated 2016).

Experiments:
E. coli MG1655 = type: cell-based, Escherichia coli
ten strains of E. coli = type: cell-based, Escherichia coli
HepG2 cells = HepG2 cells cultured on CYTODEX 3 microcarriers, energy sources; type: cell-based, human; conditions: for activity at 30 µM / activity at 100 µM / activity at 330 µM / activity at 1000 µM / activity at 3300 µM / activity at 10000 µM / activity at 15000 µM / activity at 20000 µM: Homo sapiens, HepG2, 68 h, read-out: Responses of HepG2 Cells Cultured on Microcarriers After 68 hours in Culture and a 4 hour Color Development Period
Procedure: In this Example, methods for testing adherent cells cultured in suspension, for their ability to use multiple carbon sources are described. HepG2 cells were cultured as described in Example 30.
HepG2 cells were harvested by trypsinization for 3 minutes in 0.25% trypsin-1 mM EDTA and resuspended in an equal volume of culture medium. A viable cell count was obtained by trypan blue exclusion and the appropriate volume of the cell suspension to have 2.7×10^6 cells/0.1 gm CYTODEX 3 (Sigma C3275) microcarrier beads was determined. Microcarrier beads had been previously prepared by 1) rehydration in calcium-magnesium free (CMF) DPBS for 3 hours, 2) autoclaving for 15 minutes, and 3) washing twice in MEM without serum. The cell suspension was added to the beads in a 50 mL tube, and the volume adjusted to 5 mL. Cells were allowed to attach for 1 hour in an atmosphere of 5% CO2, 90-100% humidity, and 37° C., with resuspension every 15 minutes. The microcarriers were transferred to a 100×15 mm Petri dish in a total volume of 20 mL. Cultures were maintained as stationary cultures until used for assay.
The thixotropic suspending agent, methylcellulose (1500 cps, Sigma M0555), was included in the medium to keep the microcarriers suspended so that they could be accurately pipetted. The methylcellulose was prepared by autoclaving in 20 mL tissue culture water for 30 minutes, then mixing by shaking for 1 hour. The initial concentration of methylcellulose was […]. The methylcellulose was then diluted 1:1 in 2× DME with or without glucose, then supplemented with 10% HI FBS; this yields a methylcellulose concentration of 1.36%. Beads were transferred to a 50 mL tube, allowed to settle and resuspended in DPBS. The washed beads were then resuspended in DME with 10% HI FBS and penicillin-streptomycin but without glucose, L-glutamine, sodium pyruvate, or phenol red. An equal volume of 1.36% methylcellulose was added and mixed by pipetting.
For the assay, 70 μL of DME with 10% HI FBS and penicillin-streptomycin but without glucose, L-glutamine, sodium pyruvate, or phenol red were added to each well, followed by 30 μL of the appropriate dilution of each test energy source. Stocks of 133 mM of each test chemical were prepared in tissue culture grade water, sterile filtered, and dilutions were prepared in a master plate so that, upon dilution into a regular 96-well MICROPLATE a total well volume of 200 μL, the final concentrations would be 0.033 to 20 mM. Negative control wells received 30 μL of tissue culture grade water. One hundred μL of beads were pipetted into each well. For each plate containing energy sources and cells, a second, control plate containing only energy sources was prepared. Plates were incubated at 5% CO2, 90-100% humidity, and 37° C. for 68 hours prior to addition of the MTS/MPMS colorometric reagent (10 μL/well). The color formed in each well 4-8 hours after addition of the colorimetric reagent, was measured with a plate reader at 490 nm with a reference wavelength of 650 nm. OD values from the control plate were subtracted from the OD values obtained with cells prior to normalizing the data to % negative control (cells without added energy source).

With `CCCCCCC(N)C(=O)O` (racemic) [DL-α-amino-caprylic acid] the “suitability as nitrogen source (growth, purple color)” value (“suitability as nitrogen source” below) (E. coli MG1655) was “not suitable”.

With `CCC(N)C(=O)O` (racemic) [DL-α-amino-n-butyric acid] the “suitability as nitrogen source” value (E. coli MG1655) was “not suitable”.

For `CCCC(N)C(=O)O` (centres unmarked) [2-amino-valeric acid], the “suitability as nitrogen source” value (E. coli MG1655) was “not suitable”.

`C[C@@H](N)c1ccccc1` [(R)-(+)-α-phenylethylamine] was tested, and the “suitability as nitrogen source” value (E. coli MG1655) was “not suitable”.

For `N[C@H]1C(O)O[C@H](CO)[C@H](O)[C@@H]1O` (stereo partly drawn) [D(+)-galactosamine], the “suitability as nitrogen source” value (E. coli MG1655) was “weak positive”.

With `N[C@H]1C(O)O[C@H](CO)[C@@H](O)[C@@H]1O` (stereo partly drawn) [D(+)-glucosamine] the “suitability as nitrogen source” value (E. coli MG1655) was “positive”.

In the case of `NC(=O)C[C@@H](N)C(=O)O` [D-asparagine], the “suitability as nitrogen source” value (E. coli MG1655) is reported as “not suitable”.

For `N[C@H](CCC(=O)O)C(=O)O` [D-glutamic acid], the “suitability as nitrogen source” value (E. coli MG1655) was “not suitable”.

With `NCCCC[C@@H](N)C(=O)O` [D-lysine] the “suitability as nitrogen source” value (E. coli MG1655) was “not suitable”.

In the case of `N[C@@H]1C(O)O[C@H](CO)[C@@H](O)[C@@H]1O` (stereo partly drawn) [D-mannosamine], the “suitability as nitrogen source” value (E. coli MG1655) is reported as “weak positive”.

For `CC(C)[C@@H](N)C(=O)O` [D-valine], the “suitability as nitrogen source” value (E. coli MG1655) was “not suitable”.

For `NC(=O)NCCC[C@H](N)C(=O)O` [L-citrulline], the “suitability as nitrogen source” value (E. coli MG1655) was “not suitable”.

With `CC[C@H](C)[C@H](N)C(=O)O` [L-isoleucine] the “suitability as nitrogen source” value (E. coli MG1655) was “not suitable”.

For `CC(C)C[C@H](N)C(=O)O` [L-leucine], the “suitability as nitrogen source” value (E. coli MG1655) was “not suitable”.

With `NCCCC[C@H](N)C(=O)O` [L-lysine] the “suitability as nitrogen source” value (E. coli MG1655) was “not suitable”.

With `N[C@@H](Cc1ccc(O)cc1)C(=O)O` [L-tyrosine] the “suitability as nitrogen source” value (E. coli MG1655) was “not suitable”.

For `CC(=O)N[C@H]1C(O)O[C@H](CO)[C@H](O)[C@@H]1O` (stereo partly drawn) [N-acetyl-D-galactosamine], the “suitability as nitrogen source” value (E. coli MG1655) was “not suitable”.

In the case of `CC(=O)NCC(=O)O` [N-acetyl-glycine], the “suitability as nitrogen source” value (E. coli MG1655) is reported as “not suitable”.

`OC[C@H]1O[C@@](CO)(O[C@H]2O[C@H](CO)[C@@H](O)[C@H](O)[C@H]2O)[C@@H](O)[C@@H]1O` [Sucrose] was tested, and the carbon source utilization (ten strains of E. coli) was “+ and −”, the “carbon source utilization (text)” value (ten strains of E. coli) was “three of the four strains were positive” and the activity at 30 µM (HepG2 cells; Conc. 0.03 mM) was 90.2%. The activity at 100 µM (HepG2 cells; Conc. 0.10 mM) was 109%, the activity at 330 µM (HepG2 cells; Conc. 0.33 mM) was 98.6% and the activity at 1000 µM (HepG2 cells; Conc. 1.00 mM) was 95.2%. The activity at 3300 µM (HepG2 cells; Conc. 3.3 mM) was 94%, the activity at 10000 µM (HepG2 cells; Conc. 10 mM) was 83.3% and the activity at 15000 µM (HepG2 cells; Conc. 15 mM) was 66.8%. It also gave an activity at 20000 µM (HepG2 cells; Conc. 20 mM) of 59.5%.

`CC(N)=O` [acetamide] was tested, and the “suitability as nitrogen source” value (E. coli MG1655) was “not suitable”.

For `Nc1ncnc2nc[nH]c12` [adenine], the “suitability as nitrogen source” value (E. coli MG1655) was “not suitable”.

For `N=C(N)NCCCCN` [agmatine], the “suitability as nitrogen source” value (E. coli MG1655) was “not suitable”.

`CC(CC(=O)O)C(=O)O` (centres unmarked) [methyl succinate] was tested, and the “Responses of HepG2 Cells Cultured on Microcarriers After 68 hours in Culture and a 4 hour Color Development Period” value (“Responses of HepG2 Cells Cultured” below) (HepG2 cells; Conc. 0.03 mM) was 90.6 % of negative control, the “Responses of HepG2 Cells Cultured” value (HepG2 cells; Conc. 0.10 mM) was 83.3 % of negative control and the “Responses of HepG2 Cells Cultured” value (HepG2 cells; Conc. 0.33 mM) was 98.6 % of negative control. The “Responses of HepG2 Cells Cultured” value (HepG2 cells; Conc. 1.00 mM) was 107.5 % of negative control, the “Responses of HepG2 Cells Cultured” value (HepG2 cells; Conc. 3.3 mM) was 124.3 % of negative control and the “Responses of HepG2 Cells Cultured” value (HepG2 cells; Conc. 10 mM) was 162.7 % of negative control. For the same compound, the “Responses of HepG2 Cells Cultured” value (HepG2 cells; Conc. 15 mM) was 181.5 % of negative control and the “Responses of HepG2 Cells Cultured” value (HepG2 cells; Conc. 20 mM) was 112.4 % of negative control.

Work on `O[C@H]1[C@H](O)[C@@H](O)[C@H](O)[C@@H](O)[C@H]1O` [myoinositol] yielded an activity at 30 µM (HepG2 cells; Conc. 0.03 mM) of 86.3%, an activity at 100 µM (HepG2 cells; Conc. 0.10 mM) of 110% and an activity at 330 µM (HepG2 cells; Conc. 0.33 mM) of 113%. The activity at 1000 µM (HepG2 cells; Conc. 1.00 mM) was 99.8%, the activity at 3300 µM (HepG2 cells; Conc. 3.3 mM) was 108% and the activity at 10000 µM (HepG2 cells; Conc. 10 mM) was 89%. The activity at 15000 µM (HepG2 cells; Conc. 15 mM) was 78.3% and the activity at 20000 µM (HepG2 cells; Conc. 20 mM) was 61.4%.
